{"source": "paper PMC2229062", "about": "(The Journal of General Physiology, 1991)", "tested_on": "GK (G protein coupled to the muscarinic K+ channel IK.ACh)", "test": "inside-out patch clamp, inhibition of GTP-induced IK.ACh openings, Hill fit", "assay_type": "biochemical, Cavia porcellus", "settings": "no agonist; against 10 µM GTP; same; assumed competitive with GTP", "data": [{"smiles": "Nc1nc2c(ncn2[C@@H]2O[C@H](COP(=O)(O)OP(=O)(O)O)[C@@H](O)[C@H]2O)c(=O)[nH]1", "note": "[GDP]", "values": [{"measurement": "IC50", "value": 0.51, "unit": "µM"}]}]}
